Measured values taken from article PMC5995184, “Potent anti-leukemic activity of a specific cyclin-dependent kinase 9 inhibitor in mouse models of chronic lymphocytic leukemia” (Oncotarget, 2018).

Test system: MEC-1 cells
Assay: MEC-1 cell line apoptosis, viability, MCL-1/BCL-2 and cell cycle (flow cytometry)
Assay type: cell-based
Description: The MEC-1 cell line was obtained from the DSMZ (Braunschweig, Germany) and was cultured in RPMI (10% fetal bovine serum). A LDC526 stock solution was prepared with DMSO, diluted and added to the cultures to reach the specified concentrations. Samples (percentage of CD19+CD5+ CLL cells >90%) of n=37 CLL patients (Table 1) and n=6 healthy normal donor controls were used for experiments after obtaining informed consent according to institutional guidelines, approved by the Ethics Commission of the University of Essen-Duisburg. Peripheral blood mononuclear cells (PBMC) were isolated using Lymphoprep ([…] Technologies, Cologne, Germany) density gradient centrifugation and were used directly for NSG transplantation or in vitro experiments. Untouched normal donor B cells were isolated with a B cell isolation kit (Miltenyi, Bergisch Gladbach, Germany) according to the manufacturer’s instructions. For in vitro experiments, cells were maintained in RPMI supplemented with 10% fetal bovine serum, penicillin and streptomycin.
Apoptosis and cell death were determined by using Annexin V (BD Biosciences, Heidelberg, Germany) and 4′,6-Diamidin-2-phenylindol (DAPI, Sigma-Aldrich) staining. Erythrocytes of murine peripheral blood samples were lysed with NH4Cl hypotonic solution. Single cell suspensions of murine spleens were prepared as previously described. Murine cells were stained with antibodies directed against murine CD3 (clone 145-2C11), CD5 (53-7.3) and CD19 (1D3), respectively. For the detection of human cells in NSG spleens antibodies against human CD3 (clone SK7), CD4 (SK3), CD5 (L17F12), CD8 (SK1), CD19 (J3-119 or SJ25C1) and CD45 (2D1) were used (purchased from BD Bioscience, Biolegend and Beckman Coulter). Flow cytometric analysis was carried out on a LSRII flow cytometer (BD Biosciences, Heidelberg, Germany). Flow cytometric data were analyzed with BD FACSDiva or FlowJo software (FLOWJO, LLC, Ashland, OR, USA). Intracellular staining for MCL-1 and BCL-2 (anti-MCL-1 [clone D2W9E, Cell Signaling Technology, Leiden, The Netherlands] and matched isotype control [clone DA1E, Cell Signaling Technology]; anti-BCL-2 [clone Bcl-2/100, BD Bioscience] and matched isotype control [clone MOPC-21, BD Bioscience]) within MEC-1 and primary CLL cells was performed with the FoxP3 / Transcription factor staining buffer set (eBioscience/Thermo Fisher Scientific, Dreieich, Germany) according to the manufacturer’s instructions. Before permeabilization and antibody incubation cells were stained with a fixable viability dye (eFluor 450, eBioscience/Thermo Fisher Scientific). Before adding the anti-MCL-1 and anti-BCL-2 antibodies permeabilized cells were blocked with 2% mouse serum and 2% rabbit serum (Sigma-Aldrich) in permeabilization buffer. Intracellullar murine lymphocyte staining for Bcl-2 was carried out with the BD Cytofix/Cytoperm kit according to the manufacturer’s instructions. A Hamster Anti-mouse Bcl-2 (clone 3F119, BD Biosciences) and a corresponding isotype control (clone A19-3) were used. Dead cells and doublets were excluded by and FSC/SSC gating and positive DAPI or eFluor 450 viability dye staining, respectively. To assess the impact of LDC526 on the cell-cycle status of MEC-1 cells we used the BrdU Flow Kit according to the manufacturer’s protocol (BD Bioscience). […]
Data were analyzed with GraphPad Prism 7 software. Differences were assessed by unpaired or paired Student t tests if not indicated otherwise. […]

COc1cc(F)ccc1-c1ncnc(Nc2cccc(CS(N)(=O)=O)c2)n1 [LDC526, (3-((4-(4-fluoro-2-methoxyphenyl)-1,3,5-triazin-2-yl)amino)phenyl)methane-sulfonamide]
MEC-1 apoptosis (Annexin V+, DAPI-) (4 hours, 500 nM and 1 μM): significantly increased MEC-1 apoptosis | intracellular MCL-1 protein levels in MEC-1 (4 hours, increasing concentrations): reduced | MEC-1 S-phase entry (BrdU) (24 hours, 10 μM): significantly decreased | MEC-1 cell cycle (BrdU) (24 hours, concentrations up to 1 μM): did not alter the cell cycle | IC50 (Homo sapiens, MEC1, 48 hours incubation, read-out: IC50, MEC-1 absolute viable cell numbers): 550 nM
